The record followed here is US12473295B2, “Substituted straight chain spiro derivatives” (Janssen Pharmaceutica NV, priority 2019, dated 2025).

Molecules are shown by their SMILES. Where a name gives a salt, the structure may show the parent alone. Read-outs that look alike come from different tables or passages of the source. A value given as a limit tells only on which side of the number the result lay.

Experiment [1] concerns the target menin/MLL (terbium chelate-labeled menin, FITC-MBM1 peptide) (Homo sapiens (Human), UniProt O00255). The experiment is described as follows: Menin/MLL homogenous time-resolved fluorescence (HTRF) assay.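 Also: IC50 from percent inhibition of HTRF signal, normalized between wells without competitor and wells with a saturating competitor that displaces FITC-MBM1 from His-tagged menin.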 In kind it is binding. The note with it: HTRF-30 min incubation IC50, 30 min incubation. In general terms: TR-FRET usually uses a lanthanide donor and a delayed reading to cut background.

The next experiment has as its system MOLM14 cells. Briefly: Proliferation assay (spheroid growth, 8 days), MOLM14.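 Also: spheroid size read as confluence by live-cell imaging, compounds added at a range of concentrations with 0.3% DMSO, DMSO-treated wells = 0%, highest reference dose = low control.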 The note with it: Homo sapiens, MOLM14, 8 days, read-out: spheroid assay_OneTime MOLM14 IC50. Type of experiment: cell-based, human.
The subject of another experiment is OCI-AML3 cells. Briefly: Proliferation assay (spheroid growth, 8 days), OCI-AML3. The note with it: Homo sapiens. Type of experiment: cell-based, human. An outline of the steps:
(§1)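 Spheroid size on day 8, taken as live-cell imaging confluence, served as readout after 8-day compound exposure (0.3% DMSO, 37 °C, 5% CO2) in round-bottom low-attachment wells. Seeding was 200 cells for MOLM14 and OCI-AML3, 300 for KO-52. IC50 came from % effect versus DMSO and reference baseline, fitted with variable slope.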

The next experiment concerns KO-52 cells. The experiment is described as follows: Proliferation assay (spheroid growth, 8 days), KO-52 control cell line. Type of experiment: cell-based, human. The note with it: Homo sapiens, read-out: spheroid assay_OneTime KO-52 IC50. A digest of the protocol:
as §1

A further experiment concerns MEIS1 mRNA. Briefly: MEIS1 mRNA expression assay (Quantigene Singleplex) in MOLM14 cells.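 Also: MEIS1 transcript levels read by probe hybridization and normalized to RPL28 mRNA, with IC50 fitted to fold changes across a rising compound concentration series.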 In kind it is cell-based, human. The note with it: Homo sapiens.
A further experiment addresses hERG potassium channel (Homo sapiens (Human), UniProt Q12809). The experiment is described as follows: Effect on membrane potassium current IKr in hERG transfected CHO cells, Protocol 1 (QPatch). In kind it is cell-based. The protocol: 8) Effect on the Membrane Potassium Current IKr in hERG Transfected Cell Lines
• CHO Chinese hamster ovary cell line • DMSO Dimethylsulfoxide • hERG human ether-á-go-go-related gene • IKr rapidly activating delayed-rectifier K^+ current Methods
Experiments were performed using CHO cells stably expressing the hERG potassium channel. Cells were grown at 37° C. and 5% CO2 in culture flasks in Ham's F12 Medium supplemented with 10% heat-inactivated fetal calf serum, hygromycin B (100 μg/ml) and geneticin (100 μg/ml). For use in the automated patch-clamp system QPatch (Sophion) cells were harvested to obtain cell suspension of single cells.
Solutions: The bath solution contained (in mM) 145 NaCl, 4 KCl, 10 glucose, 10 HEPES ((4-(2-hydroxyethyl)-1-piperazineethanesulfonic acid), 2 CaCl2 and 1 MgCl2 (pH 7.4 with NaOH). The pipette solution contained (in mM) 120 KCl, 10 EGTA (Ethylene glycol-bis(2-aminoethylether)-N,N,N′,N′-tetraacetic acid), 10 HEPES, 5.374 CaCl2 and 1.75 MgCl2 (pH 7.2 with KOH).
Patch-clamp experiments were performed in the voltage-clamp mode and whole-cell currents were recorded with an automated patch-clamp assay utilizing the QPatch system (Sophion). Current signals were amplified and digitized, stored and analyzed by using the QPatch assay software.
The holding potential was −80 mV. The hERG current (K^+-selective outward current) was determined as the maximal tail current at −40 mV after a 2 second depolarization to +60 mV. Pulse cycling rate was 15 s. A short pulse (90 ms) to −40 mV served as a baseline step to calculate the tail current amplitude. After establishing whole-cell configuration and a stability period, the solvent control (0.3% DMSO) was applied for 5 minutes followed by the test substance by four increasing concentrations of 3×10^−7 M, 3×10^−6 M, 10^−5 M and 3×10^−5 M. Each concentration of the test substance was applied twice. The effect of each concentration was determined after 5 min as an average current of 3 sequential voltage pulses. To determine the extent of block the residual current was compared with vehicle pre-treatment.
Concentration/response relations were calculated by non-linear least-squares fits to the individual data points. The half-maximal inhibiting concentration (IC50) was calculated by the fitting routine.
Background: Block of hERG is tested as a sign of cardiac risk.

Setting [2] is: OCI-AML-3, […], OCI-AML3, 8 days.
Setting [3] is: MOLM-14, 48 h, 48 hours incubation.

hERG potassium channel, sequence (Q12809 whole entry): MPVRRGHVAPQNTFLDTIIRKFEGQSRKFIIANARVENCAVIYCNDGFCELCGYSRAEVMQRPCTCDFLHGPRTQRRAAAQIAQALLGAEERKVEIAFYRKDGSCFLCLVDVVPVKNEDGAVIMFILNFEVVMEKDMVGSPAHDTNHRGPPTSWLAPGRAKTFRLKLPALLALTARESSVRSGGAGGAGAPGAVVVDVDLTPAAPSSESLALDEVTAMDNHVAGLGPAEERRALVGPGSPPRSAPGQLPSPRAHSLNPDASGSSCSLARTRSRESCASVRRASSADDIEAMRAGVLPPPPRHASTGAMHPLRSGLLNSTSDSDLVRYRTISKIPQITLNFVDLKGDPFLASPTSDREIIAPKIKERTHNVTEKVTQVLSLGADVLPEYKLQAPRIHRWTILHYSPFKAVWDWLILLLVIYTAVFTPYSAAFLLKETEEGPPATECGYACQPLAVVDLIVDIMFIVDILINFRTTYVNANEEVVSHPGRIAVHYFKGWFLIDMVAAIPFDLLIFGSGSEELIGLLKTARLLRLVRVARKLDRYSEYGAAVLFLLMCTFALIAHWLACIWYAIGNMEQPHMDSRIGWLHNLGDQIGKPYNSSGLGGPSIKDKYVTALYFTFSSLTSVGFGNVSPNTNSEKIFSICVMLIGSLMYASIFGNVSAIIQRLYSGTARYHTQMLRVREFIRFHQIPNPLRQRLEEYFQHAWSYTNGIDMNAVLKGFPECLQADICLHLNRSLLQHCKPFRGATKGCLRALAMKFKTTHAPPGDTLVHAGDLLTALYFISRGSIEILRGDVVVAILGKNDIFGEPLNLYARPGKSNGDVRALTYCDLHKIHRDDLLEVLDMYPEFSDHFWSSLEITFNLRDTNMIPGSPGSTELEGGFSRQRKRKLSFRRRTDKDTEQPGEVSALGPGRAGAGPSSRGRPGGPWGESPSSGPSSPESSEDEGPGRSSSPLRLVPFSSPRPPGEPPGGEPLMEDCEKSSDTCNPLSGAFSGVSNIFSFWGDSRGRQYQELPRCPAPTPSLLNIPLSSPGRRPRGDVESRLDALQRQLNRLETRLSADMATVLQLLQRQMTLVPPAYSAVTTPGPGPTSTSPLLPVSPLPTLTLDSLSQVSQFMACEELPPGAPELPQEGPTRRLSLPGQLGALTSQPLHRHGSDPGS
menin/MLL (terbium chelate-labeled menin, FITC-MBM1 peptide), sequence (O00255 other isoform, or with tags, fused parts or gaps): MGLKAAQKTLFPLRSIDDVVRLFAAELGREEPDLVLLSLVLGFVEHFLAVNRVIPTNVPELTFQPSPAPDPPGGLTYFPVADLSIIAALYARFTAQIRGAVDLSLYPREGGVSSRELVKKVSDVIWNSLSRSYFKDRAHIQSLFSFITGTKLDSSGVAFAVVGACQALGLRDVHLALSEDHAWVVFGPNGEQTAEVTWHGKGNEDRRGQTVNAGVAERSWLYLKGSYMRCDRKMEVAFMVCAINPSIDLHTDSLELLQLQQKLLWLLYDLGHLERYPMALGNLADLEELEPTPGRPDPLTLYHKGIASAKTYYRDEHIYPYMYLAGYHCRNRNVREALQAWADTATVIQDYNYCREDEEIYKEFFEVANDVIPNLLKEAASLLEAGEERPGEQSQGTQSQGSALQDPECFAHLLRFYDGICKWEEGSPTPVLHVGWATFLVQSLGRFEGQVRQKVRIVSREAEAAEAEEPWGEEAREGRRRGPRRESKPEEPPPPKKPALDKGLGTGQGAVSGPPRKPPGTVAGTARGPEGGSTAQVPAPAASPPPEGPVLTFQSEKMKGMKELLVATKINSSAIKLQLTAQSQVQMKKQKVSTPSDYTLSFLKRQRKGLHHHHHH

With `CCN(C(=O)c1cc(F)ccc1Oc1nncnc1N1CCC2(C1)CN([C@H](CCCNCCC(F)(F)F)C(C)C)C2)C(C)C` [Compound 14, (R)-N-ethyl-5-fluoro-N-isopropyl-2-((5-(2-(2-methyl-6-((3,3,3-trifluoropropyl)amino)hexan-3-yl)-2,6-diazaspiro[3.4]octan-6-yl)-1,2,4-triazin-6-yl)oxy)benzamide], the IC50 – broadly, the concentration at which inhibition is half-maximal – was 0.05 nM in experiment [1]; 10 nM with MOLM14 cells (MOLM-14, […]); 69 nM with OCI-AML3 cells (setting [2]); 3100 nM in the experiment on KO-52 cells ([…]); 8.5 nM in the experiment on MEIS1 mRNA (setting [3]); 20000 nM at hERG potassium channel.

Turning to `CCOCCN(C)CCC[C@H](C(C)C)N1CC2(CCN(c3ncnnc3Oc3ccc(F)cc3C(=O)N(CC)C(C)C)C2)C1` [Compound 258, (R)-2-((5-(2-(6-((2-ethoxyethyl)(methyl)amino)-2-methylhexan-3-yl)-2,6-diazaspiro[3.4]octan-6-yl)-1,2,4-triazin-6-yl)oxy)-N-ethyl-5-fluoro-N-isopropylbenzamide oxalate], the IC50 in experiment [1] was 0.33 nM; in the experiment on MOLM14 cells (MOLM-14, […]), 27 nM; in the experiment on OCI-AML3 cells (setting [2]), 740 nM; in the experiment with KO-52 cells ([…]) it was 5440 nM; with MEIS1 mRNA (setting [3]), 26 nM; at hERG potassium channel it was more than 30200 nM.

For the molecule `CCN(C(=O)c1cc(F)ccc1Oc1nncnc1N1CCC2(C1)CN([C@H](CCC(C)(C)N)C(C)C)C2)C(C)C` (single isomer, unassigned) [Compound 30, (*R)-2-((5-(2-(6-amino-2,6-dimethylheptan-3-yl)-2,6-diazaspiro[3.4]octan-6-yl)-1,2,4-triazin-6-yl)oxy)-N-ethyl-5-fluoro-N-isopropylbenzamide], the IC50 in experiment [1] is 0.067 nM; in the experiment on MOLM14 cells (MOLM-14, […]), 130 nM; in the experiment with OCI-AML3 cells (setting [2]), 470 nM; with KO-52 cells ([…]), more than 15000 nM; in the experiment on MEIS1 mRNA (setting [3]), 99 nM; against hERG potassium channel, more than 30200 nM.

For the molecule `CCN(C(=O)c1cc(F)ccc1Oc1nncnc1N1CCC2(C1)CN([C@H](CCCN(C)CC(C)OC)C(C)C)C2)C(C)C` (stereo partly drawn) [Compound 252, N-ethyl-5-fluoro-N-isopropyl-2-((5-(2-((3R)-6-((2-methoxypropyl)(methyl)amino)-2-methylhexan-3-yl)-2,6-diazaspiro[3.4]octan-6-yl)-1,2,4-triazin-6-yl)oxy)benzamide oxalate], the concentration for half-maximal inhibition (IC50) in experiment [1] was 0.065 nM; with MOLM14 cells (MOLM-14, […]), 32 nM; in the experiment with OCI-AML3 cells (setting [2]), 640 nM; in the experiment on KO-52 cells ([…]) it was 7260 nM; in the experiment with MEIS1 mRNA (setting [3]), 53 nM; at hERG potassium channel, more than 30200 nM.

For `CCN(C(=O)c1cc(F)ccc1Oc1nncnc1N1CCC2(C1)CN(C(CCCNCCS(C)(=O)=O)C(C)C)C2)C(C)C` (stereo not drawn) [Compound 18, N-ethyl-5-fluoro-N-isopropyl-2-((5-(2-(2-methyl-6-((2-(methylsulfonyl)ethyl)amino)hexan-3-yl)-2,6-diazaspiro[3.4]octan-6-yl)-1,2,4-triazin-6-yl)oxy)benzamide], the IC50 is 0.3 nM in experiment [1]; 120 nM in the experiment with MOLM14 cells (MOLM-14, […]); 660 nM in the experiment on OCI-AML3 cells (setting [2]); more than 15000 nM in the experiment on KO-52 cells ([…]); 150 nM in the experiment with MEIS1 mRNA (setting [3]); more than 30200 nM against hERG potassium channel.

Consider `CCN(C(=O)c1cc(F)ccc1Oc1nncnc1N1CCC2(C1)CN([C@H](CCCNCCC#N)C(C)C)C2)C(C)C` [Compound 12, (R)-2-((5(2-(6-((2-cyanoethyl)amino)-2-methylhexan-3-yl)-2,6-diazaspiro[3.4]octan-6-yl)-1,2,4-triazin-6-yl)oxy)-N-ethyl-5-fluoro-N-isopropylbenzamide], for which the IC50 in experiment [1] is 0.12 nM; in the experiment with MOLM14 cells (MOLM-14), 36 nM; in the experiment on OCI-AML3 cells (OCI-AML-3, OCI-AML3, 8 days), 630 nM; with KO-52 cells it was 8240 nM; with MEIS1 mRNA (MOLM-14, 48 hours incubation), 39 nM; against hERG potassium channel, more than 30200 nM.
